Reference: patent US5668152A, “Protein kinase C inhibitors” (priority 1995, dated 1997)
Like-named read-outs stand apart in the source and are kept apart here.

Tests used:
[1] = target: protein kinase C alpha (Homo sapiens, UniProt P17252); assay: PKC Enzyme assay, alpha isozyme; format: biochemical
Procedure: (§1) PKC enzymes=alpha, beta I, beta II, gamma, delta, epsilon, eta and zeta.
(§2) Assay components in a total volume of 250 μL are the following:
(§3) Vesicles consisting of 120 μg/mL phosphatidylserine (Avanti Polar Lipids) and sufficient diacylglycerol (Avanti Polar Lipids) to activate the enzyme to maximum activity in 20 mM HEPES buffer (Sigma, St. Louis, Mo.), pH 7.5, 940 μM calcium chloride (Sigma, St. Louis, Mo.) for assaying the alpha, beta I, beta II and gamma enzyme only, 1 mM EGTA for all the enzymes, 10 mM magnesium chloride (Sigma, St. Louis, Mo.) and 30 μM (gamma-32P) ATP (DuPont). For all the enzymes either histone type HL (Worthington) or myelin basic protein is used as substrate. The assay is started by addition of protein kinase C enzyme incubated at 30° C. for 10 minutes and stopped by adding 0.5 mL of cold trichloroacetic acid (Amresco) followed by 100 μL of 1 mg/mL bovine serum albumin (Sigma, St. Louis, Mo.). The precipitate is collected by vacuum filtration on glass fiber filters employing a TOMTEC™ filtration system and quantified by counting in a beta scintillation counter.

[2] = target: protein kinase C beta-1 (Homo sapiens, UniProt P05771); assay: PKC Enzyme assay, beta I isozyme; format: biochemical
Chain of protein kinase C beta-1 (P05771 whole entry): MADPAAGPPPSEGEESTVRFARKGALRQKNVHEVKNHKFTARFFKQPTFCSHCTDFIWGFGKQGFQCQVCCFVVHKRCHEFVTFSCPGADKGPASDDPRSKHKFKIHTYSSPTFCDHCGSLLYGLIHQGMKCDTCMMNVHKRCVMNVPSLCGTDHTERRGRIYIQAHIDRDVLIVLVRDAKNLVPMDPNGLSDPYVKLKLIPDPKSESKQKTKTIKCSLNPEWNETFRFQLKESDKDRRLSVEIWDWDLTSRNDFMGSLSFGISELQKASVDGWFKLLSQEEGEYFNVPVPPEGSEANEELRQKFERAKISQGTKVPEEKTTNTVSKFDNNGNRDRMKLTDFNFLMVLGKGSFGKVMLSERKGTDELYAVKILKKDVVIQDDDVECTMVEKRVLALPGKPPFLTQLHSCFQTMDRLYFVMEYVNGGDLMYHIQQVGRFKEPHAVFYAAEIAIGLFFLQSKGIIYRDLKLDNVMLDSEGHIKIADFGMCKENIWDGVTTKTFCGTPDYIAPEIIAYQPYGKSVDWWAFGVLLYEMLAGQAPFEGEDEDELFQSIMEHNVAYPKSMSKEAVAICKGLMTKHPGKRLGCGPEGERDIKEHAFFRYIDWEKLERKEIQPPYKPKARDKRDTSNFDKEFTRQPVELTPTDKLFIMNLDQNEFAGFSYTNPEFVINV
Procedure: as §1, §2, §3

[3] = target: protein kinase C beta-2 (Homo sapiens, UniProt P05771); assay: PKC Enzyme assay, beta II isozyme; format: biochemical
Chain of protein kinase C beta-2 (P05771 1-673 isoform P05771-2): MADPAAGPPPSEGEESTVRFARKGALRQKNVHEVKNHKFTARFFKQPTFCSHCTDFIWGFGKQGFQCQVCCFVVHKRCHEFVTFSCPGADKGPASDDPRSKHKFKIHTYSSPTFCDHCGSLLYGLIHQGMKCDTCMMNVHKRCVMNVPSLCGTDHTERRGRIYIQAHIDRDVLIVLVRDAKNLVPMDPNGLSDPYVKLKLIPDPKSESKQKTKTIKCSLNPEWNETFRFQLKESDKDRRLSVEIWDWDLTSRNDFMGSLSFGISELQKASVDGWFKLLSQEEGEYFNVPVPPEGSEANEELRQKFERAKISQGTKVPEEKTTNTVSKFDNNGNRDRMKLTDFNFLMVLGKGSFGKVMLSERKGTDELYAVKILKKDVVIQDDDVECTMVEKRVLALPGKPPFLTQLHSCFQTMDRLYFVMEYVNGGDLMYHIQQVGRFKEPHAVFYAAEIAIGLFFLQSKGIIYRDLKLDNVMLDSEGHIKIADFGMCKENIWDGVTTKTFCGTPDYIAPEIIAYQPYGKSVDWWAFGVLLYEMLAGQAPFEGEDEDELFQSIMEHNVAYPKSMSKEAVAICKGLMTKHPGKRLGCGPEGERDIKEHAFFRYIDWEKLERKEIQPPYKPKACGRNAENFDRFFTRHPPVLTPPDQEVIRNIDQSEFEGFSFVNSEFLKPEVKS
Procedure: as §1, §2, §3

[4] = target: protein kinase C gamma (Homo sapiens, UniProt P05129); assay: PKC Enzyme assay, gamma isozyme; format: biochemical
Procedure: as §1, §2, §3

[5] = target: protein kinase C delta (Homo sapiens, UniProt Q05655); assay: biochemical
Chain of protein kinase C delta (Q05655 whole entry): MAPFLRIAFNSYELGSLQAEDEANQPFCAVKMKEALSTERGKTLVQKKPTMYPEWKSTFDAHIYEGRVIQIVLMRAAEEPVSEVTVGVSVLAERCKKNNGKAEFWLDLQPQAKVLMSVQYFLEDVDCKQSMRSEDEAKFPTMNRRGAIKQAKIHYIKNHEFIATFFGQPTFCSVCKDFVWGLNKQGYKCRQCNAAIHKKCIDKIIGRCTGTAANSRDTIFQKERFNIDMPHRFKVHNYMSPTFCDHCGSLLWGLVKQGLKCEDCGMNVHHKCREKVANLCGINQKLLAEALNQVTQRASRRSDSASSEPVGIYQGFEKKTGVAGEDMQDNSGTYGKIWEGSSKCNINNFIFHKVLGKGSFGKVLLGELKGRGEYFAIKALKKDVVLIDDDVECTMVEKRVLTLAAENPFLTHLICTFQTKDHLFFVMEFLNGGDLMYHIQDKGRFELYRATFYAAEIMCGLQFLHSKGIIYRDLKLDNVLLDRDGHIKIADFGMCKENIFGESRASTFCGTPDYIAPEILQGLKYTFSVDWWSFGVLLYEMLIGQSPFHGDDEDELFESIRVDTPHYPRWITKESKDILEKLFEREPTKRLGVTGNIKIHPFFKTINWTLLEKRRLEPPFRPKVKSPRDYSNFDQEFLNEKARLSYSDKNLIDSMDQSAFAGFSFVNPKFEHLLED
Procedure: as §1, §2, §3

[6] = target: T1, protein kinase C epsilon (Homo sapiens, UniProt Q02156); assay: PKC Enzyme assay, epsilon isozyme; format: biochemical
T1 sequence (Q02156 1-737): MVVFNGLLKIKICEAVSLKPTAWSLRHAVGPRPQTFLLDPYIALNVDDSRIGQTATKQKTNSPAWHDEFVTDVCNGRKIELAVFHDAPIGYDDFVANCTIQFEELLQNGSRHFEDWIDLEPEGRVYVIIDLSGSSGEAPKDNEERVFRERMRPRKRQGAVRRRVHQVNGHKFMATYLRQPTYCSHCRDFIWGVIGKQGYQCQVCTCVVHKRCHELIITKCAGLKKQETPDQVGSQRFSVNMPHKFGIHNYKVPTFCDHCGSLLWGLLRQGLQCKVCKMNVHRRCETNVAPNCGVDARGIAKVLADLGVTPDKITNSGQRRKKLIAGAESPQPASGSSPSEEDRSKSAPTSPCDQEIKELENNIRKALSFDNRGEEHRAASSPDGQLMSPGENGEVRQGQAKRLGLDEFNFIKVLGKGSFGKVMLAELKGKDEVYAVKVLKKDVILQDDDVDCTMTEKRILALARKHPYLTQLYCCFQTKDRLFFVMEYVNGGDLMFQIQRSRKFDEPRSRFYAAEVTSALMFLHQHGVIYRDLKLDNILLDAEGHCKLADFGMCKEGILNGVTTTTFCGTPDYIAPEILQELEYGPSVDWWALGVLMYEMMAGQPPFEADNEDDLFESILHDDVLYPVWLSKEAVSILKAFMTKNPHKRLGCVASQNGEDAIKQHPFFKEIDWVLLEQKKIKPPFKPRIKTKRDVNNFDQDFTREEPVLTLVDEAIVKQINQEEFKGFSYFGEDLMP
Procedure: as §1, §2, §3

[7] = target: T2, protein kinase C zeta (Homo sapiens, UniProt Q05513); assay: PKC Enzyme assay, zeta isozyme; format: biochemical
T2 sequence (Q05513 1-592): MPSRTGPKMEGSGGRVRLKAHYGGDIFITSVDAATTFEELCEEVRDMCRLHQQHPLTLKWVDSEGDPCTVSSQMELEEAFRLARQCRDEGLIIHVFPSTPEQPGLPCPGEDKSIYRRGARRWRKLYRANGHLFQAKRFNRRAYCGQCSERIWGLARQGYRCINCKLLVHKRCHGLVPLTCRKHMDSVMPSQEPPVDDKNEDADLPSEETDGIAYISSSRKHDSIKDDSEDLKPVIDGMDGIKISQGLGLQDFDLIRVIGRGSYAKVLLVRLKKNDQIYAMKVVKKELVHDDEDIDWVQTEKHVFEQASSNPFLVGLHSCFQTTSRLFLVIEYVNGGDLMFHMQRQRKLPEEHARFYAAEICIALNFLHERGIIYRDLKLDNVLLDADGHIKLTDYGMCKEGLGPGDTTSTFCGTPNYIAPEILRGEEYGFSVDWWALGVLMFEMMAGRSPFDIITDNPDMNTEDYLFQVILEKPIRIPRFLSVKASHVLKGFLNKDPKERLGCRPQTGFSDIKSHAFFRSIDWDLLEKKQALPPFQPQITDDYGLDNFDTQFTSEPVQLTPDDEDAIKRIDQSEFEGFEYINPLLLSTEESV
Procedure: as §1, §2, §3

[8] = target: protein kinase C eta (Homo sapiens, UniProt P24723); assay: PKC Enzyme assay, eta isozyme; format: biochemical
Chain of protein kinase C eta (P24723 whole entry): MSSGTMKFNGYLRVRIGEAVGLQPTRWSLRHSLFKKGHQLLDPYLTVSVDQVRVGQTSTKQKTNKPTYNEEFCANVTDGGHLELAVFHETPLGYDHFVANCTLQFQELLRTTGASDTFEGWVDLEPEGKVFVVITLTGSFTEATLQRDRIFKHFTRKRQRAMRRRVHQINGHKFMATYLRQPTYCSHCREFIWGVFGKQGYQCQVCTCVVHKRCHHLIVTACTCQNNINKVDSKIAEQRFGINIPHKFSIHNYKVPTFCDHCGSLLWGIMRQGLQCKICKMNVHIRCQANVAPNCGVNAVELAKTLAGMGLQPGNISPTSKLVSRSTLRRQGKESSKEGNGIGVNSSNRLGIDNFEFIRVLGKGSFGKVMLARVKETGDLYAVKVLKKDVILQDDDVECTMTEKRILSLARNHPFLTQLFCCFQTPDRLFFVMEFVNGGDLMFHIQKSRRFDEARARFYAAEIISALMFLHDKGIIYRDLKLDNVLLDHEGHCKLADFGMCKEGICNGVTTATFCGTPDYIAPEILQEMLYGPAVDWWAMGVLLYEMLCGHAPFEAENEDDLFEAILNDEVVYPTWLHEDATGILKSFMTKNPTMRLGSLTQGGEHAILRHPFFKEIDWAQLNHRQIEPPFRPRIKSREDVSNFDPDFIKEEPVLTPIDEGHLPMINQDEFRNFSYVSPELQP
Procedure: as §1, §2, §3

[9] = PKC alpha, 30 μM ATP, 30° C., 10 minutes, read-out: IC50 α
[10] = PKC beta-1, 30 μM ATP, 30° C., 10 minutes, read-out: IC50 β1
[11] = PKC beta-2, 30 μM ATP, 30° C., 10 minutes, read-out: IC50 β2
[12] = PKC gamma, 30 μM ATP, 30° C., 10 minutes, read-out: IC50 γ
[13] = PKC delta, 30 μM ATP, 30° C., 10 minutes, read-out: IC50 δ
[14] = PKC epsilon, 30 μM ATP, 30° C., 10 minutes, read-out: IC50 ε
[15] = PKC zeta, 30 μM ATP, 30° C., 10 minutes, read-out: IC50 ζ
[16] = PKC eta, 30 μM ATP, 30° C., 10 minutes, read-out: IC50 η

| IC50 [1, 9] | IC50 [2, 10] | IC50 [3, 11] | IC50 [4, 12] | IC50 [5, 13] | IC50 [6, 14] | IC50 [7, 15] | IC50 [8, 16] | SMILES | IC50 [1] | IC50 [2] | IC50 [3] | IC50 [4] | IC50 [5] | IC50 [6] | IC50 [7] | IC50 [8] |
| --- | --- | --- | --- | --- | --- | --- | --- | --- | --- | --- | --- | --- | --- | --- | --- | --- |
| 400 nM | 20 nM | 10 nM | 500 nM | 400 nM | 400 nM | 4000 nM | 50 nM | CN1CCC(n2cc(C3=C(c4cn(C)c5ccccc45)C(=O)NC3=O)c3ccccc32)CC1 [Example 42, 3-[1-(1-Methyl-piperidin-4-yl)-indol-3-yl]-4-(1-methyl-indol-3-yl)-1H-pyrrole-2,5-dione] |  |  |  |  |  |  |  |  |
| 3500 nM | 70 nM | 60 nM | 8800 nM | 6800 nM | 31800 nM | 33000 nM | 5700 nM | Cn1cc(C2=C(c3c4n(c5ccccc35)CCC(CO)(CO)C4)C(=O)NC2=O)c2ccccc21 [Example 2, 3-[8,8-bis(hydroxymethylene)-6,7,8,9-tetrahydropyrido[1,2-a]indol-10-yl]-4-(1-methyl-3-indolyl)-1H-pyrrole-2,5-dione] |  |  |  |  |  |  |  |  |
| > 100000 nM | 9100 nM | 2700 nM | 90000 nM | > 100000 nM | > 100000 nM | 49000 nM | 42 nM | Cn1cc(C2=C(c3cn(C4CN(C(c5ccccc5)c5ccccc5)C4)c4ccccc34)C(=O)NC2=O)c2ccccc21 [Example 72, 3-[1-(Benzhydryl-azetidin-3-yl)-indol-3-yl)-4-(1-methyl-indol-3-yl)-1H-pyrrole-2,5-dione] |  |  |  |  |  |  |  |  |
| 270 nM | 14 nM | 6.1 nM | 1500 nM | 440 nM | 3800 nM | 9260 nM | 400 nM | Cn1cc(C2=C(c3c4n(c5ccccc35)CCC(CO)C4)C(=O)NC2=O)c2ccccc21 (stereo not shown) [Example 9, 3-[8-(Hydroxymethyl)-6,7,8,9-tetrahydropyrido[1,2-a]indol-10-yl]-4-(1-methyl-3-indolyl)-1H-pyrrole-2,5 dione] |  |  |  |  |  |  |  |  |
| 4900 nM | 140 nM | 100 nM | 4000 nM | 3400 nM | 5500 nM | 37000 nM | 1300 nM | Cc1c(C2=C(c3cn(CN(C)C)c4ccccc34)C(=O)NC2=O)c2ccccc2n1CCCN(C)C [Example 15] |  |  |  |  |  |  |  |  |
| 3000 nM | 200 nM | 100 nM | 4000 nM | 4000 nM | 1000 nM | 15000 nM | 2000 nM | CN(C)CCCN1CCC(n2cc(C3=C(c4cn(C)c5ccccc45)C(=O)NC3=O)c3ccccc32)CC1 [Example 41, 3-{1-[1-N-(3-N,N-(Dimethylamino)propyl)-piperidin-4-yl]-indol-3-yl}-4-(1-methyl-indol-3-yl)-1H-pyrrole-2,5-dione] |  |  |  |  |  |  |  |  |
| 4400 nM | 200 nM | 100 nM | 5200 nM | 3900 nM | 42000 nM | 41000 nM | 2600 nM | Cn1cc(C2=C(c3cn(CCOC4C[C@@H](N=[N+]=[N-])[C@@H](CO)O4)c4ccccc34)C(=O)NC2=O)c2ccccc21 (stereo partly shown) [Example 62] |  |  |  |  |  |  |  |  |
|  |  |  |  |  |  |  |  | CN(C)CCCn1cc(C2=C(c3c[nH]c4ccccc34)C(=O)NC2=O)c2ccccc21 [Example 10] | 660 nM | 50 nM | 50 nM | 1040 nM | 920 nM | 930 nM | 23000 nM | 90 nM |
| 1400 nM | 47 nM | 33 nM | 2400 nM | 1900 nM | 4600 nM | 9800 nM | 110 nM | CN1CCC(Cn2cc(C3=C(c4cn(C)c5ccccc45)C(=O)NC3=O)c3ccccc32)CC1 [Example 68, 3-(1-Methyl-indol-3-yl)-4-[1-(1-methyl-piperidin-4-ylmethylene)-indol-3-yl]-1H-pyrrole-2,5-dione] |  |  |  |  |  |  |  |  |
|  |  |  |  |  |  |  |  | Cn1cc(C2=C(c3cn(C4CCN(CC(F)(F)C(F)(F)C(F)(F)F)CC4)c4ccccc34)C(=O)NC2=O)c2ccccc21 [Example 46, 3-{1-[1-(2,2,3,3,4,4,4-Heptafluoro-butyl)-piperidin-4-yl]-indol-3-yl}-4-(1-methyl-indol-3-yl)-1H-pyrrole-2,5-dione] | > 100000 nM | 3000 nM | 460 nM | > 100000 nM | > 100000 nM | > 100000 nM | > 100000 nM | > 100000 nM |
| 4500 nM | 200 nM | 110 nM | 9000 nM | 2800 nM | 31000 nM | 48000 nM | 1600 nM | Cn1cc(C2=C(c3cn(CCOC4O[C@H](CO)[C@@H](O)[C@@H](N=[N+]=[N-])[C@H]4O)c4ccccc34)C(=O)NC2=O)c2ccccc21 (stereo partly shown) [Example 59] |  |  |  |  |  |  |  |  |

| SMILES | IC50 [1, 9] | IC50 [2, 10] | IC50 [3, 11] | IC50 [4, 12] | IC50 [5, 13] | IC50 [6, 14] | IC50 [7, 15] | IC50 [8, 16] | IC50 [1] | IC50 [2] | IC50 [3] | IC50 [4] | IC50 [5] | IC50 [6] | IC50 [7] | IC50 [8] |
| --- | --- | --- | --- | --- | --- | --- | --- | --- | --- | --- | --- | --- | --- | --- | --- | --- |
| Cn1cc(C2=C(c3cn(C4CCN(CC5CC5)CC4)c4ccccc34)C(=O)NC2=O)c2ccccc21 [Example 39, 3-[1-N-(1-N-(Cyclopropylmethylene)-piperidin-4-yl)-indol-3-yl]-4-(1-N-(methyl)-indol-3-yl)-1H-pyrrole-2,5-dione] | 300 nM | 30 nM | 10 nM | 400 nM | 400 nM | 900 nM | 9000 nM | 50 nM |  |  |  |  |  |  |  |  |
| CC(=O)OCC1(COC(C)=O)CCn2c(c(C3=C(c4cn(C)c5ccccc45)C(=O)NC3=O)c3ccccc32)C1 [Example 1, 3-[8,8-bis(acetoxymethylene)-6,7,8,9-tetrahydropyrido[1,2-a]indol-10-yl]-4-(1-methyl-3-indolyl)-1H-pyrrole-2,5-dione] | 9800 nM | 360 nM | 300 nM | 38000 nM | 47000 nM | 150000 nM | 50000 nM | 121000 nM |  |  |  |  |  |  |  |  |
| Cn1cc(C2=C(c3cn(C4CCN(C(=NC(=O)OC(C)(C)C)NC(=O)OC(C)(C)C)CC4)c4ccccc34)C(=O)NC2=O)c2ccccc21 [Example 5, [t-Butoxycarbonylimino-(4-{3-[4-(1-methyl-1H-indol-3-yl)-2,5-dioxo-2,5-dihydro-1H-pyrrole-3-yl]-indol-1-yl}-piperidin-1-yl)-methyl]-carbamic acid t-butyl ester] | 370 nM | 44 nM | 29 nM | 500 nM | 470 nM | 2600 nM | 42000 nM | 150 nM |  |  |  |  |  |  |  |  |
